Test results published in the NIST ThermoML archive (doi:10.1021/je700193w).
± gives the expanded uncertainty stated by the source.

Legend:
[1] = xn = mol fraction of the nth substance listed; conditions: 101 kPa, Liquid
[2] = excess molar enthalpy (molar enthalpy of mixing); xn = mol fraction of the nth substance listed; conditions: 101 kPa, Liquid

C=C1CCC2CC1C2(C)C (stereo not drawn) [β-pinene] + CC(C)CO
Conditions	excess molar enthalpy, [2] [kcal/mol]	mass density, [1] [kg/m3]	speed of sound, [1] [m/s]
283.15 K, x1 = 0.0529	0.0158 ± 0.00167	–	–
283.15 K, x1 = 0.0566	–	815.77 ± 0.7	1248.3 ± 5.1
283.15 K, x1 = 0.1066	–	820.99 ± 0.69	1257.1 ± 5.1
283.15 K, x1 = 0.109	0.0306 ± 0.00191	–	–
283.15 K, x1 = 0.2011	–	829.88 ± 0.68	1270.2 ± 5.1
283.15 K, x1 = 0.2159	0.0605 ± 0.00263	–	–
283.15 K, x1 = 0.2931	–	837.56 ± 0.67	1281.1 ± 5.2
283.15 K, x1 = 0.3175	0.0851 ± 0.00335	–	–
283.15 K, x1 = 0.395	–	845.26 ± 0.66	1292.2 ± 5.2
283.15 K, x1 = 0.4299	0.108 ± 0.00406	–	–
283.15 K, x1 = 0.4928	–	851.82 ± 0.65	1302 ± 5.2
283.15 K, x1 = 0.5331	0.124 ± 0.00454	–	–
283.15 K, x1 = 0.6112	–	859.03 ± 0.63	1313.9 ± 5.3
283.15 K, x1 = 0.6229	0.13 ± 0.00478	–	–
283.15 K, x1 = 0.6906	–	863.45 ± 0.63	1321.1 ± 5.3
283.15 K, x1 = 0.7198	0.127 ± 0.00478	–	–
283.15 K, x1 = 0.7939	–	868.88 ± 0.62	1330.7 ± 5.3
283.15 K, x1 = 0.8249	0.111 ± 0.0043	–	–
283.15 K, x1 = 0.8682	–	872.61 ± 0.61	1337.7 ± 5.3
283.15 K, x1 = 0.9096	0.0841 ± 0.00335	–	–
283.15 K, x1 = 0.9393	–	876.05 ± 0.61	1346.2 ± 5.3
283.15 K, x1 = 0.9686	0.0672 ± 0.00287	–	–
298.15 K, x1 = 0.0481	–	803.39 ± 0.72	1195.7 ± 4.9
298.15 K, x1 = 0.0529	0.0217 ± 0.00167	–	–
298.15 K, x1 = 0.109	0.044 ± 0.00239	–	–
298.15 K, x1 = 0.1107	–	809.85 ± 0.71	1203.9 ± 4.9
298.15 K, x1 = 0.201	–	818.16 ± 0.7	1214.9 ± 5
298.15 K, x1 = 0.2159	0.0841 ± 0.00335	–	–
298.15 K, x1 = 0.2969	–	826.03 ± 0.69	1225.1 ± 5
298.15 K, x1 = 0.3175	0.115 ± 0.0043	–	–
298.15 K, x1 = 0.4002	–	833.57 ± 0.67	1235.2 ± 5
298.15 K, x1 = 0.4299	0.141 ± 0.00502	–	–
298.15 K, x1 = 0.4896	–	839.51 ± 0.67	1243.9 ± 5
298.15 K, x1 = 0.5331	0.156 ± 0.0055	–	–
298.15 K, x1 = 0.5856	–	845.33 ± 0.66	1252.2 ± 5.1
298.15 K, x1 = 0.6229	0.161 ± 0.00574	–	–
298.15 K, x1 = 0.6785	–	850.56 ± 0.65	1260.4 ± 5.1
298.15 K, x1 = 0.7198	0.152 ± 0.0055	–	–
298.15 K, x1 = 0.7841	–	856.21 ± 0.64	1270.1 ± 5.1
298.15 K, x1 = 0.8249	0.131 ± 0.00478	–	–
298.15 K, x1 = 0.8875	–	861.41 ± 0.63	1280.4 ± 5.2
298.15 K, x1 = 0.9096	0.101 ± 0.00382	–	–
298.15 K, x1 = 0.933	–	863.62 ± 0.63	1285.2 ± 5.2
298.15 K, x1 = 0.9686	0.086 ± 0.00335	–	–
303.15 K, x1 = 0.0505	–	799.78 ± 0.73	1181.7 ± 4.9
303.15 K, x1 = 0.0529	0.0275 ± 0.00215	–	–
303.15 K, x1 = 0.1044	–	805.23 ± 0.72	1188.4 ± 4.9
303.15 K, x1 = 0.109	0.0566 ± 0.00263	–	–
303.15 K, x1 = 0.2023	–	814.23 ± 0.71	1200.2 ± 4.9
303.15 K, x1 = 0.2159	0.116 ± 0.00454	–	–
303.15 K, x1 = 0.2999	–	822.12 ± 0.69	1210.6 ± 4.9
303.15 K, x1 = 0.3175	0.154 ± 0.0055	–	–
303.15 K, x1 = 0.3929	–	828.94 ± 0.68	1219.2 ± 5
303.15 K, x1 = 0.4299	0.185 ± 0.00645	–	–
303.15 K, x1 = 0.4877	–	835.22 ± 0.67	1227.7 ± 5
303.15 K, x1 = 0.5331	0.2 ± 0.00693	–	–
303.15 K, x1 = 0.6108	–	842.66 ± 0.66	1238.3 ± 5
303.15 K, x1 = 0.6229	0.204 ± 0.00717	–	–
303.15 K, x1 = 0.6829	–	846.72 ± 0.65	1244.6 ± 5.1
303.15 K, x1 = 0.7198	0.191 ± 0.00669	–	–
303.15 K, x1 = 0.7908	–	852.45 ± 0.64	1254.4 ± 5.1
303.15 K, x1 = 0.8249	0.162 ± 0.00574	–	–
303.15 K, x1 = 0.8846	–	857.17 ± 0.64	1263.9 ± 5.1
303.15 K, x1 = 0.9096	0.124 ± 0.00454	–	–
303.15 K, x1 = 0.9299	–	859.39 ± 0.63	1268.9 ± 5.1
303.15 K, x1 = 0.9686	0.103 ± 0.00406	–	–
313.15 K, x1 = 0.0401	–	790.45 ± 0.74	1143.3 ± 4.7
313.15 K, x1 = 0.0529	0.0356 ± 0.00239	–	–
313.15 K, x1 = 0.1042	–	796.91 ± 0.73	1150.9 ± 4.8
313.15 K, x1 = 0.109	0.0743 ± 0.00335	–	–
313.15 K, x1 = 0.2004	–	805.6 ± 0.7	1160.9 ± 4.8
313.15 K, x1 = 0.2159	0.141 ± 0.00526	–	–
313.15 K, x1 = 0.3012	–	813.68 ± 0.71	1170.6 ± 4.8
313.15 K, x1 = 0.3175	0.187 ± 0.00645	–	–
313.15 K, x1 = 0.3902	–	820.11 ± 0.7	1178.2 ± 4.9
313.15 K, x1 = 0.4299	0.221 ± 0.00765	–	–
313.15 K, x1 = 0.51	–	827.98 ± 0.68	1187.7 ± 4.9
313.15 K, x1 = 0.5331	0.239 ± 0.00813	–	–
313.15 K, x1 = 0.6202	–	834.55 ± 0.67	1196.8 ± 4.9
313.15 K, x1 = 0.6229	0.242 ± 0.00813	–	–
313.15 K, x1 = 0.6847	–	838.19 ± 0.67	1202.2 ± 4.9
313.15 K, x1 = 0.7198	0.225 ± 0.00765	–	–
313.15 K, x1 = 0.7768	–	843.06 ± 0.66	1210.2 ± 4.9
313.15 K, x1 = 0.8249	0.192 ± 0.00669	–	–
313.15 K, x1 = 0.8969	–	849.21 ± 0.65	1222.1 ± 5
313.15 K, x1 = 0.9096	0.147 ± 0.0055	–	–
313.15 K, x1 = 0.9601	–	852.46 ± 0.64	1230.5 ± 5
313.15 K, x1 = 0.9686	0.123 ± 0.00454	–	–
323.15 K, x1 = 0.0529	0.044 ± 0.00263	–	–
323.15 K, x1 = 0.0547	–	783.66 ± 0.76	1114.2 ± 4.7
323.15 K, x1 = 0.1021	–	788.33 ± 0.75	1119.3 ± 4.7
323.15 K, x1 = 0.109	0.0839 ± 0.00359	–	–
323.15 K, x1 = 0.207	–	797.66 ± 0.73	1129.4 ± 4.7
323.15 K, x1 = 0.2159	0.163 ± 0.00598	–	–
323.15 K, x1 = 0.2989	–	804.85 ± 0.72	1136.8 ± 4.7
323.15 K, x1 = 0.3175	0.215 ± 0.00741	–	–
323.15 K, x1 = 0.4024	–	812.32 ± 0.71	1144.6 ± 4.8
323.15 K, x1 = 0.4299	0.248 ± 0.00837	–	–
323.15 K, x1 = 0.5041	–	818.98 ± 0.7	1152.7 ± 4.8
323.15 K, x1 = 0.5331	0.273 ± 0.00932	–	–
323.15 K, x1 = 0.6074	–	825.2 ± 0.69	1160.6 ± 4.8
323.15 K, x1 = 0.6229	0.274 ± 0.00932	–	–
323.15 K, x1 = 0.6965	–	830.27 ± 0.68	1167.7 ± 4.8
323.15 K, x1 = 0.7198	0.255 ± 0.0086	–	–
323.15 K, x1 = 0.8063	–	836.02 ± 0.67	1177.1 ± 4.8
323.15 K, x1 = 0.8249	0.22 ± 0.00765	–	–
323.15 K, x1 = 0.8887	–	840.5 ± 0.66	1184.7 ± 4.9
323.15 K, x1 = 0.9096	0.169 ± 0.00598	–	–
323.15 K, x1 = 0.9618	–	844.41 ± 0.66	1192.6 ± 4.9
323.15 K, x1 = 0.9686	0.141 ± 0.00526	–	–
